Like-named read-outs stand apart in the source and are kept apart here.
What was measured:
[1] = test system: PAF-induced cutaneous vascular permeability; test: In vivo assay: inhibition of PAF-induced increase of cutaneous vasopermeability in guinea pigs after oral dosing; conditions: guinea pig
Description: The specific PAF-antagonistic activities are further established by in vivo assays following the protocol (modified procedure of Humphrey et al., Lab. Investigation, 46, 422 (1982)) described below:
Protocol for the Evaluation of the Oral Activity of
PAF Antagonists or the Inhibition of PAF-Induced
Increase of Vasopermeability by PAF-Antagonists
I. Animal species: 5 guinea pigs (400-500 g)
(4.) Ground and suspend a PAF antagonist of formula
(I) with intensive sonication in 3 ml of 0.5%
aqueous methylcellulose solution.
(5.) Administer orally to each of the animals T1,
T2, T3 and T4 an appropriate amount (in
terms of mg/kg of bodyweight) of the antagonist
solution from 4), except the control animal
(6.) Forty minutes after the oral administration,
(7.) After 20 minutes or when the anesthetics became
effective, inject intracardially to each animal
and inject intracutaneously, in duplicate 0.1
ml of a PAF solution in Tris-buffer or 0.1 ml
of the Tris-buffer itself (control) according
(9.) Wait for 30 minutes or until the blue color
(13.) In the meantime, extract a 100 μl sample of
(15.) Measure the absorbance of each supernatant from
Palo Alto, CA). Calculate the amount of Evans
blue in each skin sample in terms of the volume
(μl) of the exuded blood plasma according to
the following equation: […]
(16.) Draw a plasma exudation curve
(17.) Calculate the percent inhibition of PAF-induced
cutaneous vascular permeability from measuring
the area under the plasma exudation curve of
the control animal (AC) and that of an
animal treated orally with an antagonist
(AD), for example T1, according to the […]

[2] = target: T1, PAF specific receptor binding site on rabbit platelet plasma membranes (Oryctolagus cuniculus, UniProt G1TEI7); test: Inhibition of 3H-PAF binding to rabbit platelet plasma membranes; conditions: read-out: % Inhibition of PAF Binding
T1 construct: from tissue; host or cells: rabbit platelets (plasma membrane suspension)
T1 sequence (G1TEI7 1-342): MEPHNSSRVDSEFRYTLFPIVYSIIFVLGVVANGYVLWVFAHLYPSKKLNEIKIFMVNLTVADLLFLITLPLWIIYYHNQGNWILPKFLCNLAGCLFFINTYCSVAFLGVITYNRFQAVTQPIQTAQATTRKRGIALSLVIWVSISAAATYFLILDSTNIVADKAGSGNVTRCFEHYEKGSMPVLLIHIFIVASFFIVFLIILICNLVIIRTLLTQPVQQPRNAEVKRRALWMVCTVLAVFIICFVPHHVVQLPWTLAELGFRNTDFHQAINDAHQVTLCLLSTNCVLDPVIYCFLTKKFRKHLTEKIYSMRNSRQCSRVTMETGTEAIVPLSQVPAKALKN
Description: In vitro, they inhibit PAF-induced functions in both the cellular and tissue levels by disturbing the PAF binding to its specific receptor site. The ability of a compound of formula (I) to inhibit the PAF binding to its specific receptor binding site on rabbit platelet plasma membranes was measured by an assay recently developed by us.
The inhibition of H^3 -PAF binding to the rabbit platelet plasma membrane by a PAF-antagonist of Formula (I) was determined by a method employing isotropic labeling and filtration techniques. Generally, a series of Tris-buffered solutions of the selected antagonist at predetermined concentrations were prepared. Each of these solutions contains 1 pmole of ^3 H-PAF, a known amount of the test antagonist, and a sufficient amount of the pH 7.5 Tris-buffer solution (10 mM Tris, 0.25% bovine serum albumin, and 150 mM NaCl per ml water) to make the final volume of 1 ml. After adding into a set of test tubes each with 100 μg of the platelet plasma membrane suspension (S. B. Hwang, et al., Biochemistry, 22, 4756 (1983)) and one of the Tris-buffer solutions described above, the resulting mixture in each test tube was incubated at 0° C. for about one hour or until the reaction was complete. Two control samples, one of which (C1) contains all the ingredients described above except the antagonist and the other (C2) contains C1 plus a 1000-fold excess of unlabeled PAF, were also prepared and incubated simultaneously with the test samples. After the incubation was completed, the contents of each test tube were filtered under vacuo through a Whatman GF/C fiberglass filter and the residue washed rapidly several times with a total of 20 ml cold (0°-5° C.) Tris-buffer solution. Each washed residue was then suspended in 10 ml scintillation solution (Aquasol 2, New England Nuclear, Connecticut) and the radioactivity was counted in a Packard Tri-Carb 460CD Liquid Scintillation System. Defining the counts from a test sample as "Total binding with antagonist"; the counts from the control sample C1, as "Total binding C1 "; and the counts from the control sample C2 as "non-specific binding C2 ", the percent inhibition of each test antagonist can be determined by the following equation: [formula]

[3] = Table 1, E (trans), dose 0.1 μM
[4] = Table 1, E (trans), dose 0.5 μM

| SMILES | % In Vivo Inhibition of PAF Receptor ([1]; 10 mg/kg) | % In Vivo Inhibition of PAF Receptor ([1]; 20 mg/kg) | % In Vivo Inhibition of PAF Receptor ([1]; 30 mg/kg) | inhibition at 0.05 µM [2] | inhibition at 0.1 µM [2] | inhibition at 0.25 µM [2] | inhibition at 0.5 µM [2] | inhibition at 1 µM [2] | inhibition at 2.5 µM [2] | inhibition at 5 µM [2] | inhibition at 0.1 µM [2, 3] | inhibition at 0.5 µM [2, 4] | inhibition at 1 µM ([2]; Table 1, E (trans), dose 1 μM) | inhibition at 5 µM ([2]; Table 1, E (trans), dose 5 μM) | % In Vivo Inhibition of PAF Receptor ([1]; 50 mg/kg) |
| --- | --- | --- | --- | --- | --- | --- | --- | --- | --- | --- | --- | --- | --- | --- | --- |
| COCCC1=C(C)/C(=C\c2ccc(S(N)(=O)=O)cc2)c2ccc(OC)cc21 [E CH2CH2OCH3 / SO2NH2 / OCH3, E 1-(4-aminosulfonylphenyl)methylene-5-methoxy-2-methyl-1H-3-indenyl-(2-methoxy)ethane] | 28% | 60% | 67% | 20% | 40% | 58% | 76% | 80% | 100% | 100% |  |  |  |  |  |
| COc1ccc2c(c1)C(CCSC)=C(C)/C2=C\c1ccc(S(N)(=O)=O)cc1 [E CH2CH2SCH3 / SO2NH2 / OCH3, E 1-(4-aminosulfonylphenyl)methylene-5-methoxy-2-methyl-1H-3-indenyl-(2-methylthio)ethane] | 30% | 46% |  |  |  |  |  |  |  |  | 34% | 78% | 100% |  |  |
| COc1ccc2c(c1)C(CCS(C)(=O)=O)=C(C)/C2=C\c1ccc(S(N)(=O)=O)cc1 [E CH2CH2SO2CH3 / SO2NH2 / OCH3, E 1-(4-aminosulfonylphenyl)methylene-5-methoxy-2-methyl-1H-3-indenyl-(2-methylsulfonyl)ethane] | 9% | 45% |  |  |  |  |  |  |  |  | 35% | 61% | 81% | 100% |  |
| COC(=O)CC1=C(C)/C(=C\c2ccc(S(N)(=O)=O)cc2)c2ccc(OC)cc21 [E CH2COOCH3 / SO2NH2 / OCH3, E methyl 1-(4-aminosulfonylphenyl)methylene-5-methoxy-2-methyl-1H-3-indenylacetate] |  |  |  |  |  |  |  |  |  |  | 35% | 70% | 84% | 100% | 0% |

Source: US4656190A, “Indene derivatives and their use as PAF-antagonists” (Merck & Co., Inc., priority 1983, dated 1987)
